Values of other authors, collected in PMC12691659 (Antimicrobial Agents and Chemotherapy, 2025).

Legend:
[1] = in vivo, cited from earlier work
Excerpt: Its retrospective, uncontrolled design limits the ability to establish causal relationships. The adherence to co-prescribing treatments could not be verified. […] Overexposure definition was based on Cmin rather than AUC, because the latter is still not widely available in routine TDM.

[2] = in vivo; cited from earlier work
[3] = human, in vivo; cited from earlier work
[4] = human, in vivo; cited from earlier work; remark: listed apart in the source
[5] = tested on: P-glycoprotein (P-gp); conditions: cited from earlier work

Q: For CCCCCCCCCC(=O)N[C@@H](Cc1c[nH]c2ccccc12)C(=O)N[C@H](CC(N)=O)C(=O)N[C@@H](CC(=O)O)C(=O)N[C@@H]1C(=O)NCC(=O)N[C@@H](CCCN)C(=O)N[C@@H](CC(=O)O)C(=O)N[C@H](C)C(=O)N[C@@H](CC(=O)O)C(=O)NCC(=O)N[C@H](CO)C(=O)N[C@@H]([C@H](C)CC(=O)O)C(=O)N[C@@H](CC(=O)c2ccccc2N)C(=O)O[C@@H]1C [daptomycin], which “Cmin associated with an increased risk of CPK elevation” value ([1]; 6 mg/kg) is on record?
A: > 24300 ng/mL

Q: What about the “AUC associated with increased risk of adverse events” value [1] of the same molecule?
A: > 939 µg·h/mL

Q: And the “Cmin associated with increased risk of adverse events” value [1]?
A: > 24000 ng/mL

Q: What about the “Dose excreted unchanged by the kidneys” value [2] of the same molecule?
A: 78%

Q: What about the “CLDAP, population final estimate” value [3] of the same molecule?
A: 0.365 L/h

Q: What about the “Q, population final estimate” value [3] of the same molecule?
A: 0.752 L/h

Q: What about the “V1, population final estimate” value [3] of the same molecule?
A: 3.59 L

Q: What about the “V2, population final estimate” value [3] of the same molecule?
A: 4.71 L

Q: What about the γCL [3] of the same molecule?
A: 0.193

Q: What about the γV1 [3] of the same molecule?
A: 0.24

Q: What about the “θ1 (CL, CLCR)” value [3] of the same molecule?
A: 0.43

Q: What about the “θ2 (CL, Sex)” value [3] of the same molecule?
A: 0.232

Q: And the “θ3 (V1, Age)” value [3]?
A: 0.263

Q: What about the “θ4 (V1, WT)” value [3] of the same molecule?
A: 0.603

Q: And the “θ6 (V1, Sex)” value [3]?
A: 0.117

Q: And the ωCL [3]?
A: 0.196

Q: And the ωQ [3]?
A: 1.13

Q: What about the ωV1 [3] of the same molecule?
A: 0.123

Q: What about the ωV2 [3] of the same molecule?
A: 0.29

Q: What about the “Increase of AUC in morbidly obese subjects” value [4] of the same molecule?
A: 60%

Q: And the “Increase of Cmax in morbidly obese subjects” value [4]?
A: 60%

Q: For CCCCC1=NC2(CCCC2)C(=O)N1Cc1ccc(-c2ccccc2-c2nnn[nH]2)cc1 [irbesartan], which “Dose eliminated unchanged in the urine” value [2] is on record?
A: Up to 20%

Q: What about the “Inhibition of the transport of digoxin, a known P-gp substrate” value [5] of the same molecule?
A: inhibit the transport of digoxin

Q: And the P-glycoprotein substrate status ([5]; renal efflux transporter)?
A: substrate of P-glycoprotein

Q: For CCCc1nc2c(C)cc(-c3nc4ccccc4n3C)cc2n1Cc1ccc(-c2ccccc2C(=O)O)cc1 [telmisartan], which “Inhibition of the transport of digoxin, a known P-gp substrate” value [5] is on record?
A: inhibit the transport of digoxin
